According to patent US20230219886A1, “NOVEL SELENO-NSAID ANALOGS AND USES THEREOF” (THE PENN STATE RESEARCH FOUNDATION, priority 2020, published 2023):
Read-outs that look alike come from different tables or passages of the source.

Assays:
[1] = system: Cyclin B1; experiment: Western blot protein expression, Cyclin B1; assay type: cell-based, human; conditions: HT-29, IC50 dose, 12 h and 24 h
Procedure: (§1) Protein Expression Analysis. Western Blot was performed to assess the expression level of different proteins before and after treatment. In brief, HT-29 cells were treated with the compound for different time intervals and the whole-cell lysates were made by lysing cells using RIPA buffer (Thermo Scientific, USA). Protease (Roche, USA) and phosphatase inhibitor cocktails (Sigma-Aldrich, USA) were used to prevent the degradation of the proteins present in the lysate. The resulting lysates were incubated on ice for 30 min and spun at 10,000 rpm for 15 min to pellet down cell debris. The total protein concentration was determined using Bradford assay (Thermo Scientific, USA). Equal amounts of cell lysates were resolved using NuPAGE gel 4-12% (Life Technologies, Carlsbad, Calif.). The resolved proteins were electro-transferred to a PVDF membrane and different antibodies were used to probe the protein expression levels. Enhanced Chemiluminescent reagent (Life technologies, USA) was used to detect the protein of interest.
(§2) To further explore the underlying mechanism of the cell cycle arrest, we studied the expression levels of the different proteins involved in the cell cycle regulation. […] At both time intervals of 12 h and 24 h, the expression levels of cell cycle regulatory proteins cyclin E1 and cyclin B1 were inhibited while p21 was induced (FIG. 7B).

[2] = system: H1299 (lung carcinoma); experiment: MTT cell viability assay, H1299; conditions: for cell viability: 48 h
Procedure: (§3) Cell Culture Conditions. The cell lines were obtained from the American Type Culture Collection (ATCC). PANC-1 and Caco-2 cell lines were maintained in DMEM medium (Gibco); HT-29, HCT-116 and RKO cells were maintained in McCoy's 5A medium (Gibco); and DU-145 and H1299 cells were maintained in RPMI 1640 medium (Gibco), supplemented with 10% fetal bovine serum (FBS; Gibco) and 1% antibiotics (10.00 units/mL penicillin and 10.00 mg/mL streptomycin; Gibco). Cells were preserved in tissue culture flasks at 37° C. and 5% CO2. Culture medium was replaced every three days.
(§4) Cell Viability Assay. The effect of each compound on cell viability was tested using the MTT assay (81). Briefly, 9000 cells/well were grown in 96-well plates for 12 h. Then these cells were incubated with either DMSO (control) or nine different concentration between 0.01-50 μM of the test compounds for 24, 48, and 72 h. Three hours before the termination point, 20 μL of MTT were added to measure cellular viability. The resultant formazan crystals were dissolved in 50 μL of DMSO, and absorbance was measured at 570 nm and 630 nm wavelengths. IC50, GI50, TGI and LC50 values were calculated using OriginPro 8.5.1.
(§5) Evaluation of the antiproliferative activities of the novel molecules. […] These four cell lines were treated with each compound at three concentrations (5, 25 and 50 μM) for 48 h.

[3] = system: Cyclin E1; experiment: Western blot protein expression, Cyclin E1; assay type: cell-based, human; conditions: HT-29, IC50 dose, 12 h and 24 h
Procedure: as §1, §2

[4] = system: PANC-1 (pancreatic carcinoma); experiment: MTT cell viability assay, Panc-1; conditions: for cell viability: 48 h
Procedure: as §3, §4, §5

[5] = system: HT-29 cells; experiment: Annexin V & Dead cell apoptosis assay; assay type: cell-based, human; conditions: HT29, 5 μM, 12 h
Procedure: (§6) Apoptosis assay. Induction of apoptosis after the treatment with compounds 1a and 6a were analyzed using Annexin V & Dead cell assay kit and Caspase 3/7 Assay kit (EMD Millipore, Billercia, Mass.) using Muse cell analyzer following manufacturer's protocol. Briefly, the HT-29 cells were plated in triplicates in a six-well plate at densities of 1×10^5 cells/well. Following day, the cells were treated with the compounds 1a and 6a and incubated for 48 h. At the end of the treatment duration, the cells were prepared following manufacturer's guidelines and the data were acquired using Muse 1.4 software.
(§7) Compounds 1a and 6a induced apoptosis in CRC cells. We further investigated whether the inhibition of cell cycle leads to apoptosis. In pursuit of this, HT29 cells were treated with 5 μM of the compounds 1a and 6a for indicated time intervals. Apoptosis was measured by using Annexin V & Dead cell assay kit and Caspase 3/7 Assay kit using Muse cell analyzer following manufacturer's protocol. The live cell population resided in the lower left quadrant and they start shifting towards the lower right quadrant (early apoptotic) or to upper right quadrant (late apoptotic/dead) after treatments. […] A similar trend was also observed after 6a treatment where the live cell population were decreased from <75% to <65% after 12 h and 24 h treatment, respectively.

[6] = system: HT-29 cells; experiment: Cell cycle analysis by flow cytometry; assay type: cell-based, human; conditions: HT-29, 24 h; for population of cells in the S-phase: compared with vehicle; for population of cells in G1 and G2/M phases: compared with vehicle (DMSO)
Procedure: Cell Cycle Analysis. Cell cycle analyses were determined by following a flow cytometry protocol as described earlier (82). In brief, HT-29 cells were serum deprived for 72 hours to get them synchronized. At the end of 72 hours, cells were supplied with fresh medium or fresh medium with 1, 2.5, 5 and 10 μM of 1a and 6a for 24 hours. After each time point, the cells were fixed in ice cold 70% ethanol. Fixed cells were washed with 1×PBS and suspended in PI staining solution. PI staining solution was made by adding 0.1% (v/v) triton X-100, 20 mg of DNase-free RNase A, and 2 mg of PI in 100 mL of PBS. After staining for 15 min, the cells were analyzed by flow cytometer (Coulter Epics XL, Beckman Coulter).
Compounds 1a and 6a inhibited CRC cell growth by inducing cell cycle arrest. We investigated the effect 1a and 6a on the cell cycle by flow cytometry.

[7] = system: HT-29 (CRC); experiment: MTT cell viability assay, HT-29; conditions: for CC50: read-out: LC50; for cell viability: 48 h
Procedure: as §3, §4, §5

[8] = system: HT-29 cells; experiment: Caspase 3/7 assay; assay type: cell-based, human; conditions: HT29, 5 μM
Procedure: as §6, §7

[9] = system: CACO-2 CRC cells; experiment: cells
Procedure: as §3, §4

[10] = system: RKO CRC cells; experiment: cells
Procedure: as §3, §4

[11] = system: p21; experiment: Western blot protein expression, p21; assay type: cell-based, human; conditions: HT-29, IC50 dose, 12 h and 24 h
Procedure: as §1, §2

[12] = Homo sapiens, NCI-H1299, 48 h, read-out: cell viability
[13] = Homo sapiens, PANC-1, 48 h, read-out: cell viability
[14] = Homo sapiens, HT-29, 48 h, read-out: cell viability

C[Se]C(=O)c1ccccc1OC(C)=O [Compound 1a, 2-((methylselanyl)carbonyl)phenyl acetate]
expression level of Cyclin B1 [1]: went down substantially | viability at 5 µM [2, 12]: 48.7 ± 5% | viability at 25 µM [2, 12]: 41.6 ± 7.2% | viability at 50 µM [2, 12]: 31.4 ± 7.7% | expression level of Cyclin E1 [3]: went down substantially | viability at 5 µM [4, 13]: 43.7 ± 12.1% | viability at 25 µM [4, 13]: 36.9 ± 6.3% | viability at 50 µM [4, 13]: 36.8 ± 6.8% | live cells [5]: < 76% | population of cells in the S-phase [6]: drastically reduced | population of cells in G1 and G2/M phases [6]: increase | increase on cytotoxic potency compared with parent NSAID scaffolds [7]: three-fold | TGI ([7]; HT-29, 24 h): 0.5 ± 0.3 µM | TGI ([7]; HT-29, 48 h): 0.2 ± 0.1 µM | TGI ([7]; HT-29, 72 h): 0.7 ± 0.3 µM | GI50 ([7]; Homo sapiens, HT-29, 24 h): 0.1 ± 0.1 µM | IC50 ([7]; Homo sapiens, HT-29, 24 h): 1.9 ± 0.6 µM | CC50 ([7]; Homo sapiens, HT-29, 24 h): 1.7 ± 1.6 µM | GI50 ([7]; Homo sapiens, HT-29, 48 h): 0.1 ± 0.1 µM | IC50 ([7]; Homo sapiens, HT-29, 48 h): 1.2 ± 0.1 µM | CC50 ([7]; Homo sapiens, HT-29, 48 h): 0.7 ± 0.1 µM | viability at 5 µM [7, 14]: 20.8 ± 5.6% | viability at 25 µM [7, 14]: 18.5 ± 4.1% | viability at 50 µM [7, 14]: 17.7 ± 12.6% | GI50 ([7]; Homo sapiens, HT-29, 72 h): 0.2 ± 0.1 µM | IC50 ([7]; Homo sapiens, HT-29, 72 h): 1.2 ± 0.4 µM | CC50 ([7]; Homo sapiens, HT-29, 72 h): 2.5 ± 1.4 µM | cytotoxicity at 5 µM ([7]; Homo sapiens, HT-29, read-out: inhibition in cell viability): 75 to 80% | apoptotic cell population [8]: time dependent increase | IC50 ([9]; Homo sapiens, Caco-2, 24 h): 2.6 ± 0.2 µM | IC50 ([9]; Homo sapiens, Caco-2, 48 h): 0.9 ± 0.1 µM | IC50 ([9]; Homo sapiens, Caco-2, 72 h): 0.8 ± 0.1 µM | IC50 ([10]; Homo sapiens, 24 h): > 50 µM | IC50 ([10]; Homo sapiens, 48 h): > 50 µM | IC50 ([10]; Homo sapiens, 72 h): > 50 µM | expression level of p21 [11]: sharp increase

C[Se]C(=O)CC1=C(C)/C(=C/c2ccc([S+](C)[O-])cc2)c2ccc(F)cc21 (centres unmarked) [Compound 6a, Se-methyl (Z)-2-(5-fluoro-2-methyl-1-(4-(methylsulfinyl)benzylidene)-1H-indenyl)ethaneselenoate]
expression level of Cyclin B1 [1]: went down substantially | cell viability ([2]; H1299, 5 μM): 53.4 ± 20.2% | cell viability ([2]; H1299, 25 μM): 41.9 ± 14.9% | cell viability ([2]; H1299, 50 μM): 31.3 ± 6.4% | expression level of Cyclin E1 [3]: went down substantially | cell viability ([4]; Panc-1, 5 μM): 49.4 ± 20.1% | cell viability ([4]; Panc-1, 25 μM): 29.0 ± 9.5% | cell viability ([4]; Panc-1, 50 μM): 21.3 ± 9.2% | live cells [5]: < 75% | population of cells in the S-phase [6]: drastically reduced | population of cells in G1 and G2/M phases [6]: increase | increase on cytotoxic potency compared with parent NSAID scaffolds ([7]; HT-29): three-fold | cell viability ([7]; HT-29, 5 μM): 22.9 ± 2.9% | cell viability ([7]; HT-29, 25 μM): 11.9 ± 6.6% | cell viability ([7]; HT-29, 50 μM): 11.1 ± 6.2% | GI50 ([7]; HT-29, 24 h): 1.2 ± 1.1 µM | IC50 ([7]; HT-29, 24 h): 2.4 ± 0.3 µM | TGI ([7]; HT-29, 24 h): 9.9 ± 3.9 µM | GI50 ([7]; HT-29, 48 h): 1.4 ± 0.7 µM | IC50 ([7]; HT-29, 48 h): 2 ± 0.7 µM | TGI ([7]; HT-29, 48 h): 3.3 ± 0.3 µM | GI50 ([7]; HT-29, 72 h): 0.5 ± 0.5 µM | IC50 ([7]; HT-29, 72 h): 1.4 ± 0.3 µM | TGI ([7]; HT-29, 72 h): 2.4 ± 0.4 µM | CC50 ([7]; HT-29, 24 h): > 50 µM | CC50 ([7]; HT-29, 48 h): 10.1 ± 5.2 µM | CC50 ([7]; HT-29, 72 h): 6.3 ± 0.7 µM | apoptotic cell population [8]: time dependent increase | IC50 ([9]; CACO-2, 24 h): 3 ± 0.5 µM | IC50 ([9]; CACO-2, 48 h): 1.3 ± 0.6 µM | IC50 ([9]; CACO-2, 72 h): 0.7 ± 0.2 µM | IC50 ([10]; RKO, 24 h): > 50 µM | IC50 ([10]; RKO, 48 h): 17.2 ± 2.4 µM | IC50 ([10]; RKO, 72 h): 17.3 ± 0.8 µM | expression level of p21 [11]: sharp increase
